Reference: patent US20250018019A1, “TREATMENT OF INTERFERON DRIVEN INFLAMMATION” (The Provost, Fellows, Foundation Scholars and the other …, priority 2023, published 2025)
Structures can show the parent of a compound that is named as a salt.

Columns and labels:
[1] = tested on: BMDMs; assay: Digitonin fractionation, qPCR of mtDNA and mtRNA; assay type: cell-based, mouse
Method: All compounds used DMSO as a vehicle except for 4-hydroxy tamoxifen (EtOH), NAC (PBS), and AOAA for tracing experiments (Media). LPS was used at a concentration of 100 ng/ml for indicated timepoints (2, 3, 4, 6, 8, 24, 48 h). FHIN1 (10 or 20 μM), MMF (50 or 100 μM), DMF (25 μM), AOAA (5 mM), oligomycin (10 μM), CCCP (50 μM) NAC (1 mM), and IMT1 (10 μM) pre-treatments were performed for 3 h prior the addition of LPS. Cells were treated with valinomycin (10 nM) 15 mins before LPS stimulation. Anti-CD210 or IgG control (10 μg/ml) antibodies were added to cells 1 h prior to LPS stimulation. Recombinant mouse IL-10 protein (100 ng/ml) was added to cells at the same time as LPS. Cells were treated with IFN-B1 (220 ng/ml) for 3 h. Cells were treated with C-178 (1 μM) 1 h prior to LPS stimulation or transfection with 2′3′-cGAMP (1.5 μg/ml) for 4 hrs to achieve cGAS-STING activation. Cells were treated with ODN 2088 (1 μM) for 1 hr prior to LPS stimulation or transfection with CPG ODN 1826 (1.5 μg/ml) to achieve TLR9 activation. 3 different timepoints of 4-hydroxy tamoxifen (TAM) (600 nM or 2 μM) or EtOH treatment were performed-these are specified in the individual figure legends. For ‘48 h’ treatments EtOH/TAM was added on day 5 of 6 during the BMDM differentiation protocol. On day 6 they were plated with EtOH/TAM (left overnight) and treated the following day. For ‘72 h’ treatments EtOH/TAM was added on day […] of 6 during the BMDM differentiation protocol. On day 6 they were plated with EtOH/TAM (left overnight) and treated the following day. For ‘96 h’ treatments EtOH/TAM was added on day […] of 6 during the BMDM differentiation protocol. On day 6 they were plated with EtOH/TAM and treated 2 days later.
BMDMs were plated at 0.5×10^6 cells/well and treated as desired. After treatment, cells were washed once with room temperature PBS, before being scraped on ice into ice cold PBS and pelleted at 500×g for 5 mins at 4° C. Supernatant was removed and discarded, and the pellet was resuspended in 400 μl extraction buffer (150 mM NaCl, 50 mM HEPES pH 7.4, 25 μg/ml digitonin). Samples were then placed in a rotating mixer at 4° C. for 10 mins before centrifugation at 2000×g at 4° C. for 5 mins. The resulting supernatant constituted the cytosolic fraction, from which RNA and DNA were isolated using an AllPrep DNA/RNA Mini Kit (Qiagen). Alternatively, the cytosolic fraction was concentrated using Strataclean Resin (Agilent) and analysed by western blot. The pellet constituted a fraction containing membrane-bound organelles which was lysed in RNA lysis buffer for RNA isolation or lysed in western blot lysis buffer for analysis by western blot. To determine the presence of mtRNA and mtDNA in the cytosol, qPCR was performed using primers specific for mitochondrial D-loop on cDNA which had been reverse-transcribed from RNA isolated from the cytosolic fraction (mtRNA) and on DNA isolated from the cytosolic fraction (mtDNA). In both cases, values were normalised using a housekeeping control gene (β-actin) amplified in cDNA which had been reverse-transcribed from RNA isolated from the membrane-bound fraction.

[2] = tested on: MAVS; assay: MAVS oligomerisation; assay type: cell-based, mouse; conditions: BMDMs pre-treated, LPS 4 h
Method: BMDMs were plated at 1×10^6 cells/well in technical triplicate and treated as desired. After treatment, cells were washed twice with 200 μl cold PBS before being lysed in crosslinking lysis buffer (50 mM HEPES, 0.5% triton X-100, 1X protease inhibitor cocktail). Samples were placed on ice for 15 mins. Lysates were centrifuged for 15 mins at 6000×g at 4° C. and the supernatant was removed and frozen down as the ‘soluble fraction.’ 20 μl of the soluble fraction was mixed with 5 μl of sample lysis buffer (0.125 M Tris pH 6.8, 10% glycerol, 0.02% SDS, 5% DTT) and run on a 10% gel. The insoluble pellet was resuspended in HEPES (50 mM) and washed 3 times by centrifuging at 6000×g at 4° C. and removing the supernatant each time. After the final wash, the pellet was resuspended in 500 μl crosslinking buffer (50 mM HEPES, 150 mM NaCl) and disuccinimidyl suberate (DSS, Thermo Fisher, made up in anhydrous DMSO) was added to the final concentration of 2 mM. Immediately following the addition of DSS, the sample was inverted several times and incubated for 45 mins at 37° C. The sample was then centrifuged for 15 mins at 6000×g at 4° C., before the supernatant was removed and the pellet was resuspended in 30 μl sample lysis buffer. The resuspended ‘insoluble fraction’ was subsequently boiled for 5 mins at 95° C. before being run on a gel.

[3] = tested on: human PBMCs; assay: RT-qPCR gene expression in human PBMCs; assay type: cell-based; conditions: LPS-stimulated human PBMCs, LPS 4 h
Method: Human blood samples from healthy donors were collected and processed at the School of Biochemistry and Immunology in TBSI (TCD). Blood samples were obtained anonymously and written informed consent for the use of blood for research purposes has been obtained from the donors. All the procedures involving experiments on human samples have been approved by the School of Biochemistry and Immunology Research Ethics Committee (TCD). Experiments were conducted according to the TCD guide on good research practice, which follows the guidelines detailed in the National Institutes of Health Belmont Report (1978) and the Declaration of Helsinki. […] The remaining pellet of mononuclear cells was resuspended, counted, and plated at 1×10^6 cells/ml in RPMI supplemented with FCS (10%) and penicillin/streptomycin (1%). […]
RNA extraction from cells was carried out using a Purelink™ RNA kit (Invitrogen) according to the manufacturer's instructions. […] Isolated RNA was quantified using a NanoDrop 2000 spectrophotometer, and RNA concentration was normalised to the lowest concentration across all samples with RNAse-free water. If necessary, samples were DNAse-treated after quantification using DNAse I (Thermo Fisher) according to the manufacturer's instructions. […]

In the case of CCOC(=O)[C@@]12CCCC=C1N(Cc1ccc(-c3ccccc3)cc1)C(=O)[C@H]2CC(=O)NC [FHIN1, Fumarate hydratase-IN-1], the “mtRNA in whole cell fraction” value ([1]; BMDMs pre-treated, LPS 4 h) is reported as “not in the whole cell fraction”, the “mtDNA in cytosolic extracts (D-loop)” value ([1]; digitonin-fractionated BMDMs) is reported as “increase” and the “mtRNA in cytosolic extracts” value ([1]; digitonin-fractionated BMDMs) is reported as “increased”. The MAVS oligomerisation [2] was “observed MAVS oligomerisation”, the IL10 expression [3] was “suppressed” and the Tnfa expression [3] was “increased”.
